Assay results published in the supplement of paper PMC8149375.

What was measured:
Settings in all cases: treatment: drug + dasatinib (fixed dose, not stated); 5 days
769-P [1] = test: GI50 of drug in presence of dasatinib; higher = less potent
Protocol: (§1)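 Primary HTS combination arm: 8 RCC cell lines treated with 8 doses (up to 10 uM) of each library drug plus a fixed dose of dasatinib (dose not stated) for 5 days; viability read by CellTiter-Glo and normalised to DMSO. GI50 was fitted with XLfit, AUC is the area under the dose-response curve, and minimum viability is the lowest fraction of DMSO viability across doses.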

786-O [2] = test: as above
Protocol: as §1

A498 [3] = test: as above
Protocol: as §1

ACHN [4] = test: as above
Protocol: as §1

CAKI-1 [5] = test: as above
Protocol: as §1

SN12C [6] = test: as above
Protocol: as §1

TK-10 [7] = test: as above
Protocol: as §1

UO-31 [8] = test: as above
Protocol: as §1

769-P [9] = test: minimum viability across doses, drug + dasatinib, relative to DMSO (fraction); higher = less growth inhibition
Protocol: as §1

786-O [10] = test: as above
Protocol: as §1

A498 [11] = test: as above
Protocol: as §1

ACHN [12] = test: as above
Protocol: as §1

CAKI-1 [13] = test: as above
Protocol: as §1

SN12C [14] = test: as above
Protocol: as §1

TK-10 [15] = test: as above
Protocol: as §1

UO-31 [16] = test: as above
Protocol: as §1

769-P [17] = test: AUC of dose-response viability curve, drug + dasatinib, normalised to DMSO (arbitrary (AUC of normalised viability)); higher = less growth inhibition
Protocol: as §1

786-O [18] = test: as above
Protocol: as §1

A498 [19] = test: as above
Protocol: as §1

ACHN [20] = test: as above
Protocol: as §1

CAKI-1 [21] = test: as above
Protocol: as §1

SN12C [22] = test: as above
Protocol: as §1

TK-10 [23] = test: as above
Protocol: as §1

UO-31 [24] = test: as above
Protocol: as §1

Row | Compound | GI50 of drug (769-P [1]) [nM] | GI50 of drug (786-O [2]) [nM] | GI50 of drug (A498 [3]) [nM] | GI50 of drug (ACHN [4]) [nM] | GI50 of drug (CAKI-1 [5]) [nM] | GI50 of drug (SN12C [6]) [nM] | GI50 of drug (TK-10 [7]) [nM] | GI50 of drug (UO-31 [8]) [nM] | minimum viability across doses (769-P [9]) | minimum viability across doses (786-O [10]) | minimum viability across doses (A498 [11]) | minimum viability across doses (ACHN [12]) | minimum viability across doses (CAKI-1 [13]) | minimum viability across doses (SN12C [14]) | minimum viability across doses (TK-10 [15]) | minimum viability across doses (UO-31 [16]) | AUC of dose-response viability curve (769-P [17]) | AUC of dose-response viability curve (786-O [18]) | AUC of dose-response viability curve (A498 [19]) | AUC of dose-response viability curve (ACHN [20]) | AUC of dose-response viability curve (CAKI-1 [21]) | AUC of dose-response viability curve (SN12C [22]) | AUC of dose-response viability curve (TK-10 [23]) | AUC of dose-response viability curve (UO-31 [24])
1 | C=CC(=O)Nc1cccc(Oc2nc(Nc3ccc(N4CCN(C)CC4)cc3)ncc2Cl)c1 [WZ3146] + Cc1nc(Nc2ncc(C(=O)Nc3c(C)cccc3Cl)s2)cc(N2CCN(CCO)CC2)n1 [dasatinib] | 523 | 878 | 3060 | 72.3 | 345 | 997 | 373 | 553 | 0.056 | 0.0305 | 0.301 | 0.034 | 0.00112 | 0.0852 | 0.0372 | 0.00923 | 1.85 | 1.88 | 2.76 | 1.21 | 1.47 | 1.92 | 1.76 | 2.32
2 | C=CC(=O)Nc1cccc(Sc2nc(Nc3ccc(N4CCN(C)CC4)cc3)ncc2Cl)c1 [WZ8040] + Cc1nc(Nc2ncc(C(=O)Nc3c(C)cccc3Cl)s2)cc(N2CCN(CCO)CC2)n1 [dasatinib] | 1160 | 1480 | 8300 | 127 | 1650 | 3880 | 652 | 2340 | 0.0198 | 0.00713 | 0.113 | 0.00268 | 0.00162 | 0.00446 | 0.0196 | 0.0164 | 2.02 | 2.05 | 3.23 | 1.5 | 1.96 | 2.18 | 1.96 | 2.72
3 | COC[C@H]1OC(=O)c2coc3c2[C@@]1(C)C1=C(C3=O)[C@@H]2CCC(=O)[C@@]2(C)C[C@@H]1OC(C)=O [Wortmannin] + Cc1nc(Nc2ncc(C(=O)Nc3c(C)cccc3Cl)s2)cc(N2CCN(CCO)CC2)n1 [dasatinib] | > 10000 | 32.5 | 84.8 | 41.4 | 15.8 | 53.4 | > 10000 | > 10000 | 0.487 | 0.00996 | 0.153 | 0.425 | 0.123 | 0.342 | 0.633 | 0.688 | 2.25 | 1.62 | 2.76 | 1.87 | 1.38 | 2.16 | 2.46 | 2.3
4 | Cc1ccc(S(=O)(=O)Nc2nc3ccccc3nc2Nc2ccc3nsnc3c2)cc1 [XL147] + Cc1nc(Nc2ncc(C(=O)Nc3c(C)cccc3Cl)s2)cc(N2CCN(CCO)CC2)n1 [dasatinib] | > 10000 | > 10000 | > 10000 | > 10000 | > 10000 | > 10000 | > 10000 | > 10000 | 0.634 | 0.642 | 0.924 | 0.551 | 0.764 | 0.651 | 0.743 | 0.909 | 2.42 | 2.67 | 3.43 | 2.12 | 2.82 | 2.42 | 2.87 | 3.44
5 | COc1cc2nccc(Oc3ccc(NC(=O)C4(C(=O)Nc5ccc(F)cc5)CC4)cc3)c2cc1OC [XL-184 free base (Cabozantinib)] + Cc1nc(Nc2ncc(C(=O)Nc3c(C)cccc3Cl)s2)cc(N2CCN(CCO)CC2)n1 [dasatinib] | 2000 | 29.5 | 8990 | 267 | 193 | 915 | 2770 | 1840 | 0.135 | 0.25 | 0.442 | 0.0617 | 0.0187 | 0.213 | 0.136 | 0.0162 | 2.07 | 2.2 | 3.34 | 1.6 | 1.76 | 2.07 | 2.33 | 2.75
6 | COCC[n+]1c2c(n(Cc3cnccn3)c1C)C(=O)c1ccccc1C2=O [YM155] + Cc1nc(Nc2ncc(C(=O)Nc3c(C)cccc3Cl)s2)cc(N2CCN(CCO)CC2)n1 [dasatinib] | 10.7 | > 10000 | 8.38 | 5.43 | 4.86 | 8.39 | 14.4 | 45 | 0.00674 | 0.00497 | 0.00896 | 0.00126 | 0.00438 | 0.00231 | 0.0206 | 0.00698 | 0.63 | 0.302 | 0.476 | 0.479 | 0.385 | 0.503 | 0.933 | 1.3
7 | FC(F)c1nc2ccccc2n1-c1nc(N2CCOCC2)nc(N2CCOCC2)n1 [ZSTK474] + Cc1nc(Nc2ncc(C(=O)Nc3c(C)cccc3Cl)s2)cc(N2CCN(CCO)CC2)n1 [dasatinib] | 169 | 118 | 1090 | 102 | 44.5 | 420 | 328 | 194 | 0.0686 | 0.00535 | 0.0549 | 0.0709 | 0.0415 | 0.159 | 0.115 | 0.00787 | 1.61 | 1.61 | 2.35 | 1.45 | 1.37 | 1.99 | 1.97 | 1.73
8 | O=C(O)c1ccc2c(c1)nc(Nc1cccc(Cl)c1)c1ccncc12 [cx-4945 (Silmitasertib)] + Cc1nc(Nc2ncc(C(=O)Nc3c(C)cccc3Cl)s2)cc(N2CCN(CCO)CC2)n1 [dasatinib] | > 10000 | < 3 | > 10000 | 3240 | 1270 | > 10000 | > 10000 | > 10000 | 0.595 | 0.313 | 0.47 | 0.169 | 0.033 | 0.642 | 0.645 | 0.865 | 2.44 | 1.99 | 2.87 | 2.01 | 2.12 | 2.52 | 2.54 | 4.08
